# Results: ChEMBL document CHEMBL1201862, “PubChem BioAssay data set” (2004)
#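 Each compound was tested at five concentrations against cells in 96-well plates for 48 hours. Here, GI50 denotes the concentration required for 50% inhibition of growth.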 Calls of active or inactive are those of the source. Cut-off read from the data, not from the text of the source: active = GI50 up to about 1.1 µM and inactive = higher.
# Experiments:
# Assay in all cases: DTP human tumour cell line panel, 48 h
# HCC 2998 = system: HCC 2998
# TK-10 = system: TK-10
# SN12C = system: SN12C
# T47D = system: T47D
# HT-29 = system: HT-29
# NCI/ADR-RES = system: NCI/ADR-RES
# KM12 = system: KM12
# UACC-257 = system: UACC-257
# HCT-15 = system: HCT-15
# IGROV-1 = system: IGROV-1
# HOP-62 = system: HOP-62
# NCI-H226 = system: NCI-H226
# SNB-19 = system: SNB-19
# RXF 393 = system: RXF 393
# SK-OV-3 = system: SK-OV-3
# CAKI-1 = system: CAKI-1
# MDA-N = system: MDA-N
# NCI-H23 = system: NCI-H23
# COLO 205 = system: COLO 205
# HL-60 = system: HL-60
# UACC-62 = system: UACC-62
# MCF7 = system: MCF7
# Malme-3M = system: Malme-3M
# ACHN = system: ACHN
# SK-MEL-2 = system: SK-MEL-2
# SF-539 = system: SF-539
# SR = system: SR
# Hs-578T = system: Hs-578T
# SF-295 = system: SF-295
# OVCAR-8 = system: OVCAR-8
# PC-3 = system: PC-3
# MOLT-4 = system: MOLT-4
# HOP-92 = system: HOP-92
# A549 = system: A549
# K562 = system: K562
# MDA-MB-231 = system: MDA-MB-231
# U-251 = system: U-251
# SK-MEL-5 = system: SK-MEL-5
# M14 = system: M14
# SNB-75 = system: SNB-75
# SF-268 = system: SF-268
# OVCAR-4 = system: OVCAR-4
# MDA-MB-435 = system: MDA-MB-435
# HCT-116 = system: HCT-116
# RPMI-8226 = system: RPMI-8226
# SK-MEL-28 = system: SK-MEL-28
# NCI-H460 = system: NCI-H460
# 786-0 = system: 786-0
# EKVX = system: EKVX
# SW-620 = system: SW-620
# LOX IMVI = system: LOX IMVI
# UO-31 = system: UO-31
# OVCAR-5 = system: OVCAR-5
# NCI-H522 = system: NCI-H522
# BT-549 = system: BT-549
# CCRF-CEM = system: CCRF-CEM
# DU-145 = system: DU-145
# A498 = system: A498
smiles,measurement,setting,value
COc1ccc2c(c1)CN1C(=N2)CSC1c1cccc(Br)c1 (centres undefined),GI50,HCC 2998,14.8 µM (inactive)
same,GI50,TK-10,59.8 µM (inactive)
same,GI50,SN12C,20.4 µM (inactive)
same,GI50,T47D,52.7 µM (inactive)
same,GI50,HT-29,20 µM (inactive)
same,GI50,NCI/ADR-RES,48.8 µM (inactive)
same,GI50,KM12,19.1 µM (inactive)
same,GI50,UACC-257,20.3 µM (inactive)
same,GI50,HCT-15,11 µM
same,GI50,IGROV-1,43.9 µM (inactive)
same,GI50,HOP-62,46.8 µM (inactive)
same,GI50,NCI-H226,4.86 µM (inactive)
same,GI50,SNB-19,47.3 µM (inactive)
same,GI50,RXF 393,19.9 µM (inactive)
same,GI50,SK-OV-3,> 100 µM (inactive)
same,GI50,CAKI-1,16.3 µM (inactive)
same,GI50,MDA-N,4.1 µM (inactive)
same,GI50,NCI-H23,17.7 µM (inactive)
same,GI50,COLO 205,31.7 µM (inactive)
same,GI50,HL-60,3.58 µM (inactive)
same,GI50,UACC-62,17.8 µM (inactive)
same,GI50,MCF7,10.6 µM (inactive)
same,GI50,Malme-3M,60.1 µM (inactive)
same,GI50,ACHN,19.8 µM (inactive)
same,GI50,SK-MEL-2,24.2 µM (inactive)
same,GI50,SF-539,15.4 µM (inactive)
same,GI50,SR,5.33 µM (inactive)
same,GI50,Hs-578T,53.6 µM (inactive)
same,GI50,SF-295,30.5 µM (inactive)
same,GI50,OVCAR-8,69.8 µM (inactive)
same,GI50,PC-3,17.7 µM (inactive)
same,GI50,MOLT-4,6.82 µM (inactive)
same,GI50,HOP-92,8.61 µM (inactive)
same,GI50,A549,30.6 µM (inactive)
same,GI50,K562,5.89 µM (inactive)
same,GI50,MDA-MB-231,> 100 µM (inactive)
same,GI50,U-251,26.5 µM (inactive)
same,GI50,SK-MEL-5,5.71 µM (inactive)
same,GI50,M14,52.1 µM (inactive)
same,GI50,SNB-75,14.9 µM (inactive)
same,GI50,SF-268,52.8 µM (inactive)
same,GI50,OVCAR-4,36.9 µM (inactive)
same,GI50,MDA-MB-435,6.15 µM (inactive)
same,GI50,HCT-116,19 µM (inactive)
same,GI50,RPMI-8226,6.44 µM (inactive)
same,GI50,SK-MEL-28,11.9 µM (inactive)
same,GI50,NCI-H460,30.1 µM (inactive)
same,GI50,786-0,17.8 µM (inactive)
same,GI50,EKVX,22.1 µM (inactive)
same,GI50,SW-620,15.8 µM (inactive)
same,GI50,LOX IMVI,23.9 µM (inactive)
same,GI50,UO-31,17.5 µM (inactive)
same,GI50,OVCAR-5,> 100 µM (inactive)
same,GI50,NCI-H522,22.6 µM (inactive)
same,GI50,BT-549,26.2 µM (inactive)
O=C(c1cscc1CCc1ccccc1)c1cscc1CCc1ccccc1,GI50,HCC 2998,> 100 µM (inactive)
same,GI50,TK-10,> 100 µM (inactive)
same,GI50,SN12C,> 100 µM (inactive)
same,GI50,T47D,11.6 µM (inactive)
same,GI50,NCI/ADR-RES,> 100 µM (inactive)
same,GI50,KM12,> 100 µM (inactive)
same,GI50,UACC-257,> 100 µM (inactive)
same,GI50,HCT-15,> 100 µM
same,GI50,IGROV-1,31.6 µM (inactive)
same,GI50,HOP-62,> 100 µM (inactive)
same,GI50,NCI-H226,> 100 µM (inactive)
same,GI50,SNB-19,> 100 µM (inactive)
same,GI50,CCRF-CEM,> 100 µM (inactive)
same,GI50,RXF 393,> 100 µM (inactive)
same,GI50,SK-OV-3,> 100 µM (inactive)
same,GI50,CAKI-1,> 100 µM (inactive)
same,GI50,MDA-N,> 100 µM (inactive)
same,GI50,NCI-H23,> 100 µM (inactive)
same,GI50,COLO 205,> 100 µM (inactive)
same,GI50,UACC-62,> 100 µM (inactive)
same,GI50,MCF7,> 100 µM (inactive)
same,GI50,Malme-3M,> 100 µM (inactive)
same,GI50,ACHN,> 100 µM (inactive)
same,GI50,SK-MEL-2,> 100 µM (inactive)
same,GI50,SF-539,> 100 µM (inactive)
same,GI50,SR,80 µM (inactive)
same,GI50,SF-295,> 100 µM (inactive)
same,GI50,OVCAR-8,> 100 µM (inactive)
same,GI50,PC-3,> 100 µM (inactive)
same,GI50,MOLT-4,> 100 µM (inactive)
same,GI50,A549,> 100 µM (inactive)
same,GI50,K562,> 100 µM (inactive)
same,GI50,MDA-MB-231,> 100 µM (inactive)
same,GI50,U-251,> 100 µM (inactive)
same,GI50,DU-145,> 100 µM (inactive)
same,GI50,SK-MEL-5,> 100 µM (inactive)
same,GI50,M14,> 100 µM (inactive)
same,GI50,SNB-75,> 100 µM (inactive)
same,GI50,SF-268,> 100 µM (inactive)
same,GI50,OVCAR-4,> 100 µM (inactive)
same,GI50,MDA-MB-435,> 100 µM (inactive)
same,GI50,HCT-116,> 100 µM (inactive)
same,GI50,RPMI-8226,> 100 µM (inactive)
same,GI50,SK-MEL-28,> 100 µM (inactive)
same,GI50,NCI-H460,> 100 µM (inactive)
same,GI50,786-0,> 100 µM (inactive)
same,GI50,A498,> 100 µM (inactive)
same,GI50,EKVX,> 100 µM (inactive)
same,GI50,SW-620,> 100 µM (inactive)
same,GI50,LOX IMVI,> 100 µM (inactive)
same,GI50,UO-31,> 100 µM (inactive)
same,GI50,OVCAR-5,> 100 µM (inactive)
same,GI50,NCI-H522,> 100 µM (inactive)
same,GI50,BT-549,> 100 µM (inactive)
